The values that follow come from ChEMBL document CHEMBL1649462, “Concentrations of voriconazole in healthy and inflamed lung in rats” (Antimicrob Agents Chemother, 2009).

The term AUC(0-t) denotes the area under the concentration-time curve up to a stated or last time point. A word on the Cmax: it is the highest concentration seen after dosing. Broadly, the half-life is how long it takes for the measured level to halve.

Data set [1] deals with Lung. Kind of data set: Free AUC (0 to 6 hrs) in lung of healthy Wistar rat at 6 mg/kg, iv administered as single dose after 6 hrs by microdialysis technique. Details: dose 6 mg/kg, route intravenous. Particulars: in vivo. Format: ADME, organism-based.
The nature of data set [2]: AUC (0 to 6 hrs) in plasma of healthy Wistar rat at 6 mg/kg, iv administered as single dose after 6 hrs by microdialysis technique. Details: time < 6 hr, dose 6 mg/kg, route intravenous. Format: ADME, organism-based.
Data set [3] in a line: Free AUC (0 to 6 hrs) in skeletal muscle of healthy Wistar rat at 6 mg/kg, iv administered as single dose after 6 hrs by microdialysis technique. Particulars: in vivo. Format: ADME, organism-based, Muscle tissue. Details: dose 6 mg/kg, route intravenous.
Data set [4] can be described thus: Cmax in plasma of healthy Wistar rat at 6 mg/kg, iv administered as single dose after 6 hrs by microdialysis technique. Format: ADME, organism-based. More on the design: dose 6 mg/kg, route intravenous.
Data set [5] concerns Lung. In words: fCmax in lung of healthy Wistar rat at 6 mg/kg, iv administered as single dose after 6 hrs by microdialysis technique. Format: ADME, organism-based. Details: dose 6 mg/kg, route intravenous. As to conditions: in vivo.
Data set [6] is described as follows: fCmax in skeletal muscle of healthy Wistar rat at 6 mg/kg, iv administered as single dose after 6 hrs by microdialysis technique. Format: ADME, organism-based, Muscle tissue. Details: dose 6 mg/kg, route intravenous. As to conditions: in vivo.
The nature of data set [7]: Tmax in plasma of healthy Wistar rat at 6 mg/kg, iv administered as single dose after 6 hrs by microdialysis technique. Format: ADME, organism-based. More on the design: dose 6 mg/kg, route intravenous.
The nature of data set [8]: fTmax in lung of healthy Wistar rat at 6 mg/kg, iv administered as single dose after 6 hrs by microdialysis technique. More on the design: dose 6 mg/kg, route intravenous. Format: ADME, organism-based. As to conditions: read-out: fTmax (converted).
The nature of data set [9]: fTmax in skeletal muscle of healthy Wistar rat at 6 mg/kg, iv administered as single dose after 6 hrs by microdialysis technique. Format: ADME, organism-based, Muscle tissue. Details: dose 6 mg/kg, route intravenous. As to conditions: read-out: fTmax (converted).
The nature of data set [10]: Half life in plasma of healthy Wistar rat at 6 mg/kg, iv administered as single dose after 6 hrs by microdialysis technique. Format: ADME, organism-based. Details: dose 6 mg/kg, route intravenous.
Data set [11] is described as follows: AUC (0 to 6 hrs) in plasma of Wistar rat with LPS-induced severe inflammatory response at 6 mg/kg, iv administered as single dose after 6 hrs by microdialysis technique. Format: ADME, organism-based. Details: time < 6 hr, dose 6 mg/kg, route intravenous.
Data set [12] is described as follows: AUC (0 to 6 hrs) in lung of Wistar rat with LPS-induced severe inflammatory response at 6 mg/kg, iv administered as single dose after 6 hrs by microdialysis technique. Format: ADME, organism-based. More on the design: time < 6 hr, dose 6 mg/kg, route intravenous.
The nature of data set [13]: AUC (0 to 6 hrs) in skeletal muscle of Wistar rat with LPS-induced severe inflammatory response at 6 mg/kg, iv administered as single dose after 6 hrs by microdialysis technique. Format: ADME, organism-based. More on the design: time < 6 hr, dose 6 mg/kg, route intravenous.
The nature of data set [14]: Cmax in plasma of Wistar rat with LPS-induced severe inflammatory response at 6 mg/kg, iv administered as single dose after 6 hrs by microdialysis technique. Format: ADME, organism-based. More on the design: dose 6 mg/kg, route intravenous.
Data set [15] has as its system Lung. Kind of data set: fCmax in lung of Wistar rat with LPS-induced severe inflammatory response at 6 mg/kg, iv administered as single dose after 6 hrs by microdialysis technique. Format: ADME, organism-based. Details: dose 6 mg/kg, route intravenous. Particulars: in vivo.
Data set [16] can be described thus: fCmax in skeletal muscle of Wistar rat with LPS-induced severe inflammatory response at 6 mg/kg, iv administered as single dose after 6 hrs by microdialysis technique. Particulars: in vivo. Details: dose 6 mg/kg, route intravenous. Format: ADME, organism-based, Muscle tissue.
A short description of data set [17]: Tmax in plasma of Wistar rat with LPS-induced severe inflammatory response at 6 mg/kg, iv administered as single dose after 6 hrs by microdialysis technique. Format: ADME, organism-based. Details: dose 6 mg/kg, route intravenous.
The nature of data set [18]: fTmax in lung of Wistar rat with LPS-induced severe inflammatory response at 6 mg/kg, iv administered as single dose after 6 hrs by microdialysis technique. More on the design: dose 6 mg/kg, route intravenous. As to conditions: read-out: fTmax (converted). Format: ADME, organism-based.
Data set [19] can be described thus: fTmax in skeletal muscle of Wistar rat with LPS-induced severe inflammatory response at 6 mg/kg, iv administered as single dose after 6 hrs by microdialysis technique. Format: ADME, organism-based, Muscle tissue. Details: dose 6 mg/kg, route intravenous. Particulars: read-out: fTmax (converted).
A short description of data set [20]: Half life in plasma of Wistar rat with LPS-induced severe inflammatory response at 6 mg/kg, iv administered as single dose after 6 hrs by microdialysis technique. Details: dose 6 mg/kg, route intravenous. Format: ADME, organism-based.
Data set [21] in a line: Protein binding in female Sprague-Dawley rat plasma at 30 mg/kg, po for 6 days. Format: ADME, organism-based. More on the design: dose 30 mg/kg, route oral. As to conditions: read-out: PPB (converted).
Data set [22] is described as follows: Protein binding in male Sprague-Dawley rat plasma at 30 mg/kg, po for 6 days. Particulars: read-out: PPB (converted). Details: dose 30 mg/kg, route oral. Format: ADME, organism-based.

`C[C@@H](c1ncncc1F)[C@](O)(Cn1cncn1)c1ccc(F)cc1F` [VORICONAZOLE]: the fAUC was 608 mg·min/L in the data set with Lung [1] and 530 mg·min/L in data set [3]. Moreover, the AUC(0-t) at 6 h in data set [2] was 19600 ng·h/mL; in data set [11] it was 22700 ng·h/mL; in data set [12], 8170 ng·h/mL; in data set [13], 8450 ng·h/mL. Also, the Cmax in data set [4] turned out to be 5400 ng/mL; in data set [14], 6300 ng/mL. The fCmax in the data set on Lung [5] was 2.6 mg/L; in data set [6], 2.2 mg/L; in the data set on Lung [15], 2.3 mg/L; in [16] it was 2.2 mg/L. The Tmax in data set [7] was 0.817 h; in data set [8], 2.28 h; in [9], 3.25 h; in [17] it was 0.25 h; in data set [18] it was 1.87 h; in [19], 2.17 h. For the same compound, the half-life in data set [10] is 10.2 h; in data set [20], 11.3 h. Also, the fraction unbound at 144 h in data set [21] and in data set [22] was 0.34 throughout.
